In one assay the test system is KBHURs clone. The following applies: cited from earlier work.
The test system of assay [1] is KB cells. The experiment in a line: colony-forming assay. The assay is classed as cell-based, human. The following applies: drug alone (0.1 mM HU or 0.3 μM Gem).
Another assay has as its target T1, RR activity in KB cells (Homo sapiens, UniProt P31350).
T1 construct: endogenous in cells; host or cells: KB cells (human oropharyngeal carcinoma), permeabilized with lysolecithin
T1 sequence (P31350 1-389): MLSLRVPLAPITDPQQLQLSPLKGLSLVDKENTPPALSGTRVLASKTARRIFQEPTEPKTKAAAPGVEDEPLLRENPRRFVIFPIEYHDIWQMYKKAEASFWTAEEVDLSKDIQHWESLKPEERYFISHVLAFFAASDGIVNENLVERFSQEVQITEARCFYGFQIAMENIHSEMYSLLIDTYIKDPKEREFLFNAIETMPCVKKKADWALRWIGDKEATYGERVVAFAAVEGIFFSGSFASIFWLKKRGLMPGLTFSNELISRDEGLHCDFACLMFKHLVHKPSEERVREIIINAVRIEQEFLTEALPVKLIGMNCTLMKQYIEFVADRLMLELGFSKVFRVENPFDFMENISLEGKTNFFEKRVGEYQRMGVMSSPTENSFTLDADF
The experiment in a line: in vivo RR activity assay (permeabilized cells). Type of assay: cell-based. The following applies: 0.1 mM HU. As to the method: […] cells were plated in duplicate in 60-mm dishes. Cells were treated with 0.1 mM HU and harvested at the indicated time points. To permeabilize the cells, they were washed twice in Solution A (150 mM sucrose, 80 mM KCL, 35 mM HEPES, pH 7.4, 5 mM potassium phosphate, pH 7.4, 5 mM MgCl2, 0.5 mM CaCl2), resuspended in 500 μl of cold Solution A containing 0.25 mg/ml lysolecithin, and incubated for 1 minute at 4° C. To measure the activity of ribonucleoside diphosphate reduction and DNA synthesis, 1×10^6 permeabilized cells were incubated at 37° C. for 10 minutes in 300 μl of 50 mM HEPES, pH 7.4, 10 mM MgCl2, 8 mM dithiothreitol, 0.06 mM FeCl3, 7.5 mM potassium phosphate, pH 7.4, 0.75 mM CaCl2, 10 mM phosphoenolpyruvate, 0.2 mM ^3H-rCDP, 0.2 mM rGDP, 0.2 mM rADP, 0.2 mM dTDP. Following incubation, 150 μl of the suspension mixture was taken out, resulting in two samples, and mixed with 30 μl of 60% perchloric acid/0.1% sodium pyrophosphate. After a 15-minute incubation on ice, 1 ml ddH2O was added to dilute the mixture and then it was centrifuged to precipitate any acid-insoluble material. Pellets were extracted with 0.1 ml 0.2 N NaOH and incubated at 37° C. for 30 minutes.
An in vivo RR activity assay was performed at the same time points as above described. […] The results are consistent with the observed levels of hRRM2 mRNA and protein expression.

Assay [2] has as its system intracellular dNTP pools in KB cells. The experiment in a line: dNTP pool assay. The assay is classed as cell-based, human. As to the method: After treatment at designated time points with HU and/or Gem, cells were trypsinized, washed with PBS and viable cells were counted by Trypan Blue dye exclusion. Cells were transferred to 1.5 ml Eppendorf tubes and pelleted by brief centrifugation. Cell pellets were mixed with 100 μl 15% trichloroacetic acid and kept on ice for 10 minutes. It was then centrifuged for 5 minutes and the supernatant collected. dNTPs were extracted with two 50 μl aliquots of freon/trioctylamine (55%:45%). After each centrifugation, the supernatant was saved. 5 μl aliquots of each sample were used to check dATP, dCTP, dGTP, and dTTP concentrations. Each measurement was performed in duplicate (Zhou et al. (1998) Biochem Pharmaco 55, 1657–1665).
The reaction mixture contained 50 mM Tris-HCl (pH 7.5), 10 mM MgCl2, 5 mM DTT, 0.25 μM template/primer, 1.25 μM ^3H-dATP (for dCTP, dGTP, and dTTP assays) or ^3H-dTTP (for dATP assay), and 0.2 units of Sequenase (2.0) in a total volume of 50 μl. DNA synthesis was allowed to proceed for twenty minutes at room temperature and then the reaction was stopped and 40 μl of the reaction mixture was spotted onto Whatman DE81 ion exchange paper (2.4 cm diameter). The paper was dried, washed with 5% Na2HPO4 (3×10 min.), and rinsed once with distilled water and once with 95% ethanol. Samples were counted in a liquid scintillation counter and compared to standard samples prepared in the presence of 0.25, 0.5, and 1.0 pmol/μl of each dNTP.
To evaluate the effect of HU on dNTP pools in KB cells, each dNTP pool was measured as described in the Materials and Methods. dATP and dCTP were the most susceptible of the four dNTP pools to inhibition by HU. A decrease in these intracellular pools commenced after 1 hour of exposure to HU. The decline continued, with the dCTP pool reaching a nadir of approximately 15% of the control at 4 hours. The dATP pool reached a nadir after 8 hours. In a second phase, between 8 and 24 hours after exposure to HU, the dATP and dCTP pools slowly recovered to about 80% of their starting level. […] The decline and recovery of the dCTP and dATP pools paralleled the results of the colony-forming study. The initial drop in hRRM2 mRNA and protein, observed after 2–4 hours of HU exposure, could contribute to the rapid decline in dCTP and dATP pools seen after 4 hrs, while the subsequent overexpression of hRRM2 mRNA and protein would provide the needed activity to allow gradual recovery of the levels of dCTP and dATP.

The subject of another assay is hRRM2 mRNA in KB cells. In words: Northern blot of hRRM2 mRNA after exposure to HU. The assay is classed as cell-based, human. The following applies: 0.1 mM HU.
For the next assay, the system named is DNA of KB cells. The following applies: any HU treatment schedule (control).
For assay [3], the system named is KB cells. The experiment in a line: cell cycle analysis by flow cytometry. The assay is classed as cell-based, human. To be noted: 4 to 8 hours of exposure to HU. As to the method: The cell cycle analysis was performed at flowcytometry core facility of City of Hope National Medical Center. The percent of cells in each phase of the cell cycle was analyzed by ModFit software. The protocol was summarized as below. Cells were trypsinized, washed twice with PBS, and resuspended in 1 ml PBS. 7 ml 0.5 M citric acid buffer (pH 2.35) was added and samples were stored overnight at room temperature in the dark. On the second day, the cells were placed at 4° C. in a dark environment. On the third day, cells were spun down, resuspended in citric acid buffer (pH 4.5) and adjusted to a concentration of 1×10^6 cells/ml. On the following day, the cells were spun down and resuspended in 1 ml BSA-H (0.1% BSA in PBS buffer). 150 μg RNase A (DNase free) was added to the solution and cells were incubated at 37° C. for 30 minutes. The cells were washed once with BSA-H and the pellet was resuspended in 1 ml 100 μg/ml propidium iodine (PI) and stored overnight at room temperature in the dark. On the following day, cells were analyzed by flowcytometry (Gao et al. (1998) Biochem Pharmaco 56, 105–112).
To further examine the time- and sequence-dependent interaction between HU and Gem, the effect of HU on cell cycle was studied. […] As Gem function requires DNA synthesis, the increased percent of cells in S-phase after 4 to 8 hours after exposure to HU is likely to augment its function.

Assay [4] relates to hRRM2 protein in KB cells. The experiment in a line: Western blot of hRRM2 protein after exposure to HU. To be noted: 0.1 mM HU, 4-hour point. The assay is classed as cell-based, human.
A further assay addresses T2, human RR (Homo sapiens, UniProt P23921).
T2 sequence (P23921 1-792): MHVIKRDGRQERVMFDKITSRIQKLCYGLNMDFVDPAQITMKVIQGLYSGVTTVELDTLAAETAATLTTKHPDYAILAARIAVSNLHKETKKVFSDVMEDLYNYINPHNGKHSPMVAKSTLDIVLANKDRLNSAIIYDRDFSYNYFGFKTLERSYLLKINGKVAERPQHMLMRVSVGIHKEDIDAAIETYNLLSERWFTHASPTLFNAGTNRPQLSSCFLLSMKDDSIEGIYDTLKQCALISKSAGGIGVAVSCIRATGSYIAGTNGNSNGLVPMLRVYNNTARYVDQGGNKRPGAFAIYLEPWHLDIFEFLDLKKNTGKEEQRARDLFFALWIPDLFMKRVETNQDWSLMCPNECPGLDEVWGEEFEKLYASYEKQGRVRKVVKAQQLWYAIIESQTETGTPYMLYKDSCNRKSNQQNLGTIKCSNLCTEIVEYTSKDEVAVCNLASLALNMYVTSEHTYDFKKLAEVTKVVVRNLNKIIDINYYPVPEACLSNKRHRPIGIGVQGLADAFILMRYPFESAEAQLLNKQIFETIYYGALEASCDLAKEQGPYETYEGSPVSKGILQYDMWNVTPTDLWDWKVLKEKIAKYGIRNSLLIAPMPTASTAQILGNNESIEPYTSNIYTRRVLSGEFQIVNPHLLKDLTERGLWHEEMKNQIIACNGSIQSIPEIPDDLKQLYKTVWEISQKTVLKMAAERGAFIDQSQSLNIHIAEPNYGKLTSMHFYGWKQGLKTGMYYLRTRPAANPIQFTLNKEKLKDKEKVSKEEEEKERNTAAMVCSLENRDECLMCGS
In words: inhibition of human RR activity by C-terminal RRM2 peptide added to the enzyme in vitro. Type of assay: biochemical. An excerpt:
Other compounds that can be used to inhibit RRM1 and RRM2 or RRM1 and p53R2 interaction include a peptide or polypeptide containing an amino acid sequence at the C-terminus of RRM2. […] It was further observed that a truncated form of the M2 subunit, lacking these 7 amino acids at the C-terminus, fails to form a complex with the corresponding large subunit M1. […] Thus, methods of treating a cell proliferation-associated disorder using the peptide of SEQ ID NO:5 or its functional equivalents are within the scope of the invention. Peptides or polypeptides that are functionally equivalent to SEQ ID NO:5 can be either longer or shorter than SEQ ID NO:5, or contain substitute amino acids within SEQ ID NO:5, as long as they are capable of inhibiting the interaction between RRM1 and RRM2 or RRM1 and p53R2. Such peptides or polypeptides can be generated and used according to the methods described above or any other methods well known in the art.

Assay [5] addresses T3, ribonucleotide reductase M1 subunit (RRM1) (human, UniProt P23921 1-792, limits assumed).
T3 construct: For the truncation experiment it says only 'the corresponding large subunit M1'; The construct is not described; also called large subunit M1
T3 sequence (looked up): T2 sequence (P23921 1-792)
In words: complex formation assay (method not described).

For the molecule `NC(=O)NO` [HU, hydroxyurea], in the assay with KBHURs clone, the “increase in resistance to HU over KBwt cells” value was 15 fold. Besides, the “colony formation, % of untreated controls” value in the assay on KB cells [1] is recorded as “approximately 50%”. In addition, the RR activity entry at RR activity in KB cells (8-hour point) is “recovered to the level of the control”. In addition, on RR activity in KB cells (4 hours), the “RR activity, % of the control” value came to 60%. In assay [2] (HU exposure), the “dTTP and dGTP pools over time” value is reported as “did not vary significantly”; the “time at which dATP pool reached a nadir” value was determined as 8 h. Moreover, the “dCTP pool nadir, % of the control” value in assay [2] (HU, 4 hours) is given as “approximately 15%”. In addition, the “dATP and dCTP pools, % of starting level after recovery” value in assay [2] (between 8 and 24 hours after exposure to HU) was “about 80%”. In addition, the “decrease of hRRM2 mRNA relative to untreated sample” value in the assay on hRRM2 mRNA in KB cells (2 hours) was found to be 20%. Besides, the “hRRM2 mRNA, % of control levels” value with hRRM2 mRNA in KB cells (4 hours) came out at 60%. The “incorporation of 3H-labeled CDP into DNA” value in the assay with DNA of KB cells is reported as “did not vary significantly”. For the same molecule, in the assay with KB cells [3], the “percentage of cells in G1” value is “remained stable”, the “percentage of cells in G2/M” value is “declined” and the “percentage of cells in S-phase” value is reported as “approximately doubled”. Besides, the hRRM2 protein expression result in [4] is listed as “decrease”.
Consider “FTLDADF (synthetically generated peptide)”, for which the “suppression of human RR activity” value in the assay with human RR (added to the enzyme in vitro at ratio 10:1 (peptide:enzyme)) is “dramatically suppress”. Also, in the assay with human RR (in vitro), the “inhibition of RR activity compared with RR inhibitors hydroxyurea and triapine” value was “superior”.

B1: truncated form of the M2 subunit, lacking the 7 amino acids at the C-terminus (enzyme, human, UniProt P31350 1-382, looked up)
chain: MLSLRVPLAPITDPQQLQLSPLKGLSLVDKENTPPALSGTRVLASKTARRIFQEPTEPKTKAAAPGVEDEPLLRENPRRFVIFPIEYHDIWQMYKKAEASFWTAEEVDLSKDIQHWESLKPEERYFISHVLAFFAASDGIVNENLVERFSQEVQITEARCFYGFQIAMENIHSEMYSLLIDTYIKDPKEREFLFNAIETMPCVKKKADWALRWIGDKEATYGERVVAFAAVEGIFFSGSFASIFWLKKRGLMPGLTFSNELISRDEGLHCDFACLMFKHLVHKPSEERVREIIINAVRIEQEFLTEALPVKLIGMNCTLMKQYIEFVADRLMLELGFSKVFRVENPFDFMENISLEGKTNFFEKRVGEYQRMGVMSSPTENS
notes: domain: truncated form lacking the 7 amino acids at the C-terminus; To build it, delete the last 7 residues (FTLDADF) of RRM2; also called truncated M2
For the molecule B1, the binding result in assay [5] is given as “no binding”.
